Laboratory results reported in patent publication US10023593B2, “ALK kinase inhibitor, and preparation method and uses thereof” (BEIJING PEARL BIOTECHNOLOGY LIMITED LIABILITY COMPANY, priority 2014, dated 2018).

Columns and labels:
Wild Type ALK kinase = target: T1, Wild Type ALK kinase (Homo sapiens, UniProt Q9UM73); experiment: HTRF KinEASE-TK assay, inhibitory activity on wild type ALK kinase; type: biochemical; conditions: wild type ALK 1 ng/μl, substrate 1 μM, 30° C. 35 minutes, read-out: Inhibition on ALK kinases (wildtype), IC50
T1 construct: purchased Sino-US Crown Bioscience, Inc. batch number ALK 20110607
Procedure, shortened: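 ALK kinase at 1 ng/μl and substrate at 1 μM were reacted with compound (1% DMSO) in buffer with 5 mM MgCl2 and 1 mM DTT for 35 min at 30 °C. HTRF detection used the 665/615 ratio, normalised to no-compound wells and to 10.4 μM LDK-378 wells. IC50 came from a concentration-response fit.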

NCI-H2228 cell line = experiment: CellTiter-Glo cell proliferation inhibition on NCI-H2228 cell line; type: cell-based; conditions: Homo sapiens, NCI-H2228, 96 h, NCI-H2228 cells, 5000 cells/well, 4 days drug treatment
Procedure, shortened: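 NCI-H2228 cells, 5000/well in RPMI-1640 + 10% FBS, treated with compounds 2 h after seeding (0.5% DMSO final) for 4 days at 37° C. Viability by CellTiter-Glo luminescence; inhibition relative to DMSO control, IC50 from curve fit.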

T1 sequence (Q9UM73 19-1620): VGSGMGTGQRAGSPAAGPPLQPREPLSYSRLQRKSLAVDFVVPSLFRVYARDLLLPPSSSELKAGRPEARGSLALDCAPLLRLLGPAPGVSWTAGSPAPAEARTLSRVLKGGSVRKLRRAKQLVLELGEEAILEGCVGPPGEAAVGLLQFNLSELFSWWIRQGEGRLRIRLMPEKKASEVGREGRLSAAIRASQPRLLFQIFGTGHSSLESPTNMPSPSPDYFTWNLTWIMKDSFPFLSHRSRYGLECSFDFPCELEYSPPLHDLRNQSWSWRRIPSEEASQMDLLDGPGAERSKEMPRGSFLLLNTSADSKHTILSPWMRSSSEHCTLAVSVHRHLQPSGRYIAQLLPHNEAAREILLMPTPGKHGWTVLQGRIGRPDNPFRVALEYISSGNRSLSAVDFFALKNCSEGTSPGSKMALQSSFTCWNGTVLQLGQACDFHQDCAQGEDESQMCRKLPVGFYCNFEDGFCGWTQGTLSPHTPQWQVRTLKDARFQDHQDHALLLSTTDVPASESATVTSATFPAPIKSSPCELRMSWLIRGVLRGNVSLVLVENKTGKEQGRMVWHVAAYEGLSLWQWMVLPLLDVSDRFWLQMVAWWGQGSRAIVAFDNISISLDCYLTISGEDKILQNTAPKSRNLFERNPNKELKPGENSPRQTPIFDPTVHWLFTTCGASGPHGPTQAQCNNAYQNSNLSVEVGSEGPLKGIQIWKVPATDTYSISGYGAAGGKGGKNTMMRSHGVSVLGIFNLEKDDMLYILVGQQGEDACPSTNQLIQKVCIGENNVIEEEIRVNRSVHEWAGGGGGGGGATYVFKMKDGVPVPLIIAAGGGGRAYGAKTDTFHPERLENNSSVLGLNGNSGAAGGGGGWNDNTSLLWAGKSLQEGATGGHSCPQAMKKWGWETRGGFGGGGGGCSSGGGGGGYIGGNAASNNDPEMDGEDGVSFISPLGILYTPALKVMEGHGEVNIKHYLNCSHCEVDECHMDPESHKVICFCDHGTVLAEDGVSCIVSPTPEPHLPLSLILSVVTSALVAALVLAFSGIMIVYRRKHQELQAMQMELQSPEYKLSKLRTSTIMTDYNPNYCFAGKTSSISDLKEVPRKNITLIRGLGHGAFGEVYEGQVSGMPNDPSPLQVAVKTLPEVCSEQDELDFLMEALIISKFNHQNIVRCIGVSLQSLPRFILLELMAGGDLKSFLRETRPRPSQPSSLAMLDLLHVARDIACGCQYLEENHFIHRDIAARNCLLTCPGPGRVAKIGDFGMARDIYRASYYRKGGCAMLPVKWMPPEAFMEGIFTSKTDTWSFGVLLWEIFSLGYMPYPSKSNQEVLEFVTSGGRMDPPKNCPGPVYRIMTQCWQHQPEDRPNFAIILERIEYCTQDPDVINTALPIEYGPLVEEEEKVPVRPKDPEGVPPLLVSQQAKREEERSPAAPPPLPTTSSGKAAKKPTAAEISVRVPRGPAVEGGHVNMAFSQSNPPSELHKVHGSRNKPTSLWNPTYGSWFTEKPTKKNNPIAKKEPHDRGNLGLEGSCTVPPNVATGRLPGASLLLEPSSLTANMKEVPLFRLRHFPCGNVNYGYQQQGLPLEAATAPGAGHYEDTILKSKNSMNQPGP

SMILES | IC50 (Wild Type ALK kinase) [nM] | IC50 (NCI-H2228 cell line) [nM]
Cc1cc(Nc2ncc(Cl)c(Nc3cn(C)nc3S(=O)(=O)C(C)C)n2)c(OC2CC2)cc1C1CCN(C(=O)CN(C)C)CC1 [Final product 165, 1-(2-dimethylamino)acetyl-4-(4-(5-chloro-4-(3-(isopropylsulfonyl)-1-methyl-1H-pyrazol-4-amino)pyrimidin-2-amino)-5-cyclopropoxy-2-methylphenyl)piperidine] | 2 | 35
Cc1cc(Nc2ncc(Cl)c(Nc3cn(C)nc3S(=O)(=O)C(C)C)n2)c(OC2CC2)cc1C1CCN(C(=O)CC#N)CC1 [Final product 166, 1-cyano acetyl-4-(4-(5-chloro-4-(3-(isopropylsulfonyl)-1-methyl-1H-pyrazol-4-amino)pyrimidin-2-amine)-5-cyclopropoxy-2-methylphenyl)piperidine] | 3 | 42
Cc1cc(Nc2ncc(Cl)c(Nc3cn(C)nc3S(=O)(=O)C(C)C)n2)c(OC2CC2)cc1C1CCN(S(C)(=O)=O)CC1 [Final product 167, 5-chloro-N^2-(2-cyclopropoxy-5-methyl-4-(1-methanesulfonyl-piperidin-4-yl)-phenyl)-N^4-(3-(isopropylsulfonyl)-1-methyl-1H-pyrazol-4-yl)pyrimidin-2,4-diamine] | 9 | 59
Cc1cc(Nc2ncc(Cl)c(Nc3cn(C)nc3S(=O)(=O)C(C)C)n2)c(OC(C)C)cc1C1CN(S(C)(=O)=O)C1 [Final product 168] | 14 | 440
CCN(CC)[C@H]1CC[C@H](c2cc(OC3CC3)c(Nc3ncc(Cl)c(Nc4cn(C)nc4S(=O)(=O)CC(C)C)n3)cc2C)CC1 [Final product 178] | 18 | 101
Cc1cc(Nc2ncc(Cl)c(Nc3cn(C)nc3S(=O)(=O)CC(C)C)n2)c(OC2CC2)cc1[C@H]1CC[C@H](NC2CC2)CC1 [Final product 180] | 35 | 127

The remaining compounds from weak to strong by IC50 (Wild Type ALK kinase), led by results:

IC50 (Wild Type ALK kinase) [nM] | IC50 (NCI-H2228 cell line) [nM] | SMILES
86 | 251 | Cc1cc(Nc2ncc(Cl)c(Nc3cn(C)nc3S(=O)(=O)CC(C)C)n2)c(OC2CC2)cc1C1CN(S(C)(=O)=O)C1 [Final product 171]
56 | 87 | Cc1cc(Nc2ncc(Cl)c(Nc3cn(C)nc3S(=O)(=O)C(C)C)n2)c(OC2CC2)cc1C1CCN(C(=O)C(C)(C)C)CC1 [Final product 164, 1-pivaloyl-4-(4-(5-chloro-4-(3-(isopropylsulfonyl)-1-methyl-1H-pyrazol-4-amino)pyrimidin-2-amine)-5-cyclopropoxy-2-methylphenyl)piperidine]
40 | 381 | Cc1cc(Nc2ncc(Cl)c(Nc3cn(C)nc3S(=O)(=O)C(C)C)n2)c(OC2CC2)cc1C1CN(S(C)(=O)=O)C1 [Final product 170]
37 | 34 | CC(C)S(=O)(=O)c1nn(C2CC2)cc1Nc1nc(Nc2ccc(C3CCN(S(C)(=O)=O)CC3)cc2OC2CC2)ncc1Cl [Final product 173]
19 | 34 | Cc1cc(Nc2ncc(Cl)c(Nc3cn(C)nc3S(=O)(=O)C(C)C)n2)c(OC2CC2)cc1C1CCN(C(=O)C2CC2)CC1 [Final product 162, 1-cyclopropylformyl-4-(4-(5-chloro-4-(3-(isopropylsulfonyl)-1-methyl-1H-pyrazol-4-amino)pyrimidin-2-amine)-5-cyclopropoxy-2-methylphenyl)piperidine]
8 | 111 | CC(C)S(=O)(=O)c1nn(C)cc1Nc1nc(Nc2ccc(C3CCN(S(C)(=O)=O)C3)cc2OC2CC2)ncc1Cl (centres unmarked) [Final product 172]
4 | 82 | CCNC(=O)N1CCC(c2cc(OC3CC3)c(Nc3ncc(Cl)c(Nc4cn(C)nc4S(=O)(=O)C(C)C)n3)cc2C)CC1 [Final product 174, 4-(4-(5-chloro-4-(3-(isopropylsulfonyl)-1-methyl-1H-pyrazol-4-amine)pyrimidin-2-amine)-5-cyclopropoxy-2-methyl-phenyl)-N-ethyl-piperidin-1-carboxamide]
